# US20180183541A9, “A New Treatment For Improving The Use Of Dietary Sugar For Energy Purposes” (Nutravis S.r.l., priority 2014, published 2018)
# Read-outs that look alike come from different tables or passages of the source.
# Legend:
# [1] = In vivo hydrolysis of orally given ABA-GE to ABA, plasma HPLC-MS; set-up: species or system rat; details: 30 and 60 min after gavage of synthetic ABA-GE, Wistar rats n=3
# From the text: Wistar rats (n=3) were given an amount of synthetic ABA-GE by gavage in order to evaluate its in vivo hydrolysis, resulting in the release of ABA. […] Therefore, the ABA-GE present in the aqueous apricot extract contributes to the effective dose of ABA taken with the extract, as it can be hydrolyzed to yield free ABA.
# FIG. 4: HPLC-MS analysis of representative plasma samples from a rat subjected to gavage with a solution containing synthetic ABA-GE. […] The amount of ABA released by hydrolysis from its conjugated form ABA-GE at different times (30 and 60 min after gavage) was measured by HPLC-MS. The coefficient of absorbance of ABA-GE at 254 nm, used for chromatographic analysis, is approximately 10 times lower than that of free ABA. This explains the different area of their respective chromatographic peaks.
# db/db mice = details: cited from earlier work
# myoblasts = myoblasts incubated in vitro with 100 nM ABA (Bruzzone et al. 2012); cited from earlier work
# [2] = Body weight gain induced by chronic high-dose glucose in mice; type: in vivo, mouse; details: female CD1 mice, ABA 1 μg/Kg BW with glucose 1 g/Kg BW daily in drinking water, 12 weeks
# Experimental: Five, week-old female CD1 mice (outbread) (9 per group) were administered glucose in the drinking water, without (controls) or with the addition of synthetic ABA. To achieve the required daily dose of glucose (1 g/kg BW) and of ABA (1 μg/Kg BW) the daily volume of water drank by the animals used for the test was preliminary established. Based on this volume (5 ml/day), and taking into account an average weight of the mice of 30 grams, the water administered to the animals, contained 0,006 g/ml of glucose and 0,006 μg/ml ABA. The weight control was performed after 12 weeks of treatment on the two groups of animals fasted for 17 hours before measurement of the weight. The reason for using female CD1 for this test was that they show a natural predisposition to accumulation of adipose tissue that is not found, instead, in males of the same strain.
# FIG. 8. Daily oral intake of synthetic ABA at the dose of 1 μg/Kg reduces the body weight increase induced by the chronic intake of high-dose glucose (1g/Kg) in mice. Five-week old female CD1 mice (outbred) (9/group) received daily, in the drinking water, a glucose solution without (controls) or with synthetic ABA (see Materials and Methods for details). Body weight was determined after 12 weeks of treatment, and both groups of animals were fasted for 17 hours before measurement. […]
# [3] = Stability tests of ABA at high temperatures (autoclave sterilization); type: physicochemical; details: autoclave sterilization at 121° C. for 8 min; HPLC-MS
# Experimental: Experiments were performed to evaluate the heat stability of synthetic ABA or of ABA naturally present in aqueous and supercritical extracts. Samples containing known nanomolar concentrations of ABA (either synthetic or present in the extracts) were divided into two aliquots of equal volume and subjected or not (control) to autoclave sterilization at 121° C. for 8 min (the condition generally applied to the sterilization of food). After sterilization, 100 μl of each aliquot and its un-sterilized control were injected into an analytical Hypercarb column (Thermo Scientific, Pittsburgh, Pa.) (4.6×100 mm; particle size 5 μm). Solvent A was water containing 0.1% formic acid (FOA), solvent B was acetonitrile containing 0.1% FOA and solvent flux was 0.8 ml/min. The linear elution gradient was from 100% A to 100% B in 30 min. Fractions were taken every 30 sec, lyophilized, re-dissolved in 11 μl of a solution composed of 90% solvent A and 10% solvent B of the HPLC-coupled mass spectrometry analysis and [^2H6]-ABA was added as an internal standard. Samples were analyzed as previously described under “Determination of the ABA content in several foods”. The amount of ABA present in the aliquots subjected to sterilization was unchanged compared with that measured in the control samples.
# Male CD1 mice = assay: Muscle performance in mice (spontaneous wheel running); type: in vivo, mouse; details: ABA 1 μg/Kg BW with glucose 1 g/Kg BW for 12 weeks
# Experimental: Male CD1 mice (outbread) (8 per group) were administered glucose with the drinking water without (controls) or with the addition of synthetic ABA. The concentrations of glucose and of ABA in water were calculated considering the average daily volume drank by each mice so as to reach a dose of 1 g/Kg BW and 1 μg/Kg BW of ABA. After 12 weeks of treatment the mice (average weight 45.1 and 43.3 grams for the animals treated with glucose and glucose+ABA, respectively) were kept 12 hours in two separate cages, each equipped with a wheel connected to a digital odometer measuring the total distance traveled on the wheel and the time of rotation of the wheel. The tests were performed during the night time on animals with freely available food and water containing glucose alone (controls) or glucose+ABA. The reason for using male CD1 mice for this experiment is their natural predisposition to develop more muscle mass compared to females from the same strain.
# Table 6. […] Male CD1mice (outbred) (8/group) with a mean weight of 45.1 and 43.3 g for animals treated with glucose and glucose+ABA, respectively, were kept for the same time (12 hours) in two cages, each containing a wheel connected to a digital cyclometer, capable of measuring the total distance travelled and the duration of rotation of the wheel. The tests (n=2 for each group of animals) were performed during the night hours, with ad libitum food and water, containing glucose (controls) or glucose+ABA.
# [4] = synthetic ABA 1 μg/Kg BW during OGTT
# [5] = synthetic ABA 1 μg/Kg BW with glucose 1 g/Kg BW by gavage
# Experimental for Wistar male rats: For the determination of blood glucose in rats, blood samples were taken from the tail vein of anesthetized animals and blood glucose was measured with a glucometer (Bayer). The quantification of insulin on the same animals, was carried out by sampling blood from the orbital sinus, immediately adding heparin and subjecting each sample to centrifugation at 22000×g for 30 sec: aliquots of plasma were stored at −20° C. The plasma insulin concentration was determined with an ELISA kit (Bertin-Pharma, Montigny, France).
# Wistar male rats (obtained from Charles River, Milan, Italy), age between 9 and 13 weeks, were divided into two groups (12 animals per group) and fasted for 17 hours. After mild sedation with diazepam, 1 g/kg BW of glucose was administered by gavage in about 300-400 μl of aqueous solution, containing or not 1 μg/Kg BW of synthetic ABA, or the same dose of ABA or ABA-GE endogenously present in a supercritical or water plant extract. Immediately after gavage, rats were anesthetized with xylazine and ketamine. Blood glucose was measured with a glucometer on blood taken from the tail vein immediately before gavage (time zero) and 15, 30 and 60 minutes after gavage. Each measurement was performed in duplicate.
# Two groups of male Wistar rats (12 animals per group), fasted for 17 hours, were subjected to an OGTT (1 g/Kg BW glucose) , without or with 1 μg/Kg BW of synthetic ABA. Glycemia was measured with a glucometer in duplicate on blood taken from the tail vein at baseline (immediately before gavage) and at the indicated times after gavage. Insulinemia was measured by ELISA, in duplicate on plasma samples. Results are mean ±SD.
Structure (SMILES),chromatographic peak of free ABA in plasma compared to 0 min [1],"minimum effective dose improving glucose tolerance (db/db mice; dietary intake, mice diabetic by leptin receptor mutation (Guri et al., 2007)) [mg/kg]",weight increase compared with the controls (db/db mice; mice chronically treated with ABA at 100 mg/Kg BW (literature)),glycemic profile compared to the controls (Wistar male rats; ABA 95 μg/Kg BW during OGTT),glycemic profile compared to the controls (Wistar male rats; ABA 100 mg/Kg BW during OGTT),insulin AUC compared to control rats (Wistar male rats; ABA 100 mg/Kg BW during OGTT),insulin response to the glucose load (Wistar male rats; ABA 1 and up to 95 μg/Kg BW),"plasma concentration corresponding to the dose (Wistar male rats; male, Wistar, rat, in vivo)",mean level of plasmatic insulin compared to controls (Wistar male rats; [4]),reduction of insulin AUC compared to controls (Wistar male rats; [4]),AUC of glycemia compared to the controls (Wistar male rats; [5]),glycemic profile compared to the controls (Wistar male rats; [5]),glucose transport (myoblasts),weight increase compared to the controls [2],amount of ABA after sterilization compared with control samples [3],maximal speed recorded compared with that of the controls (Male CD1 mice) [times],Time of use (Male CD1 mice; wheel available 12 hours) [min],Total distance covered (m) (Male CD1 mice; wheel available 12 hours)
"CC1=CC(=O)CC(C)(C)[C@@]1(O)/C=C/C(C)=C\C(=O)O[C@@H]1O[C@H](CO)[C@@H](O)[C@H](O)[C@H]1O [ABA-GE, ABA-glucosyl ester]",marked increase,,,,,,,,,,,,,,,,,
"CC1=CC(=O)CC(C)(C)C1(O)/C=C/C(C)=C\C(=O)O (racemic) [ABA, 2-cis, 4-trans-abscisic acid]",,100,not dissimilar compared with the controls,reduced compared to the controls,reduced compared to the controls,comparable to that of control rats,significant decrease,less than 10 nM,significantly lower,about 15 times,significantly lower AUC of glycemia,significantly reduced glycemic profile,increased glucose transport,significantly lower weight increase,unchanged,3.2,105,2693
